From the Biogen ADME set (Fang et al. 2023) come the findings set out here.

In brackets after ≈: the same amount, converted by molar mass.

For the series the following is noted: for aqueous solubility: pH 6.8.

In general, aqueous solubility refers to the concentration that dissolves in the medium under given conditions. Lower therefore signals a poorly soluble substance. Consider `Cc1c(-c2c(F)cc(C(N)=O)c3[nH]c4c(c23)CC[C@H](C(C)(C)O)C4)cccc1-n1c(=O)c2cccc(F)c2n(C)c1=O`, for which the MDR1-MDCK efflux ratio turned out to be 3.4; the fraction unbound, human plasma is 0.0273; the fraction unbound, rat plasma is 0.0212; the intrinsic clearance, human liver microsomes was found to be 11.4 mL/min/kg. The same compound showed an intrinsic clearance, rat liver microsomes of 43.4 mL/min/kg and an aqueous solubility of 2.4 µg/mL (≈ 4.19 µM).

For the compound `Cc1ccccc1CC(=O)N1CCN(C(=O)c2ccccc2)CC1`, the MDR1-MDCK efflux ratio was found to be 2.06; the intrinsic clearance, human liver microsomes was 6.12 mL/min/kg; the intrinsic clearance, rat liver microsomes came to 211 mL/min/kg; the aqueous solubility came out at 44.3 µg/mL (≈ 137 µM).

As for `Cc1cccnc1CN1CCC(O)(c2ccccc2)CC1`, the MDR1-MDCK efflux ratio was 0.958; the intrinsic clearance, human liver microsomes came out at 4.93 mL/min/kg; the intrinsic clearance, rat liver microsomes stood at 684 mL/min/kg.

`COc1ccccc1CNC(=O)C(C)N1CCCN(c2ccccc2C#N)CC1` (stereo unspecified): the MDR1-MDCK efflux ratio stood at 1.51; the intrinsic clearance, human liver microsomes came to 2190 mL/min/kg; the intrinsic clearance, rat liver microsomes worked out at 4020 mL/min/kg; the aqueous solubility worked out at 46.9 µg/mL (≈ 119 µM).

Turning to `COCC(=O)N1CCN2C(=O)NC[C@H]2C1`, the aqueous solubility worked out at 38.4 µg/mL (≈ 180 µM).

Regarding `CCOc1cc(CNc2ccc(N3CCOCC3)c(C(=O)O)c2)cc(Cl)c1OC`, the intrinsic clearance, human liver microsomes is 21.1 mL/min/kg; the intrinsic clearance, rat liver microsomes came out at 154 mL/min/kg; the aqueous solubility is 22.7 µg/mL (≈ 54 µM).

For `O=C(NCc1ccccn1)c1ccc(F)cc1Cl`, the MDR1-MDCK efflux ratio amounted to 0.596; the intrinsic clearance, human liver microsomes is not above 4.74 mL/min/kg; the intrinsic clearance, rat liver microsomes is not above 10.7 mL/min/kg; the aqueous solubility came out at 39.2 µg/mL (≈ 148 µM).

In the case of `C[C@@H](NC(=O)N1CCC2(CCN(C)CC2)C1)c1ccc(F)cc1`, the MDR1-MDCK efflux ratio is 1.75; the intrinsic clearance, human liver microsomes is not above 4.74 mL/min/kg; the intrinsic clearance, rat liver microsomes is not above 10.7 mL/min/kg.

Regarding `COCC(=O)Nc1cc(C#N)cn1C(C)(C)C`, the MDR1-MDCK efflux ratio was 1.29; the intrinsic clearance, human liver microsomes was not above 4.74 mL/min/kg; the intrinsic clearance, rat liver microsomes worked out at 15.3 mL/min/kg.

Take `COc1cc2c(cc1OC)CN(CN1C(=O)c3cccc4cccc1c34)CC2`: the intrinsic clearance, human liver microsomes turned out to be 131 mL/min/kg; the intrinsic clearance, rat liver microsomes is 504 mL/min/kg; the aqueous solubility was found to be 53.4 µg/mL (≈ 143 µM).

On to `Cc1nc(Cn2ncc3ccccc3c2=O)cs1`, for which the MDR1-MDCK efflux ratio was determined as 0.681; the intrinsic clearance, human liver microsomes was not above 4.74 mL/min/kg; the intrinsic clearance, rat liver microsomes was 103 mL/min/kg; the aqueous solubility was determined as 45.1 µg/mL (≈ 175 µM).

As to `CN1CCNc2nc3ccccc3nc21`, the MDR1-MDCK efflux ratio is 0.671; the intrinsic clearance, human liver microsomes amounted to 74 mL/min/kg; the intrinsic clearance, rat liver microsomes is 143 mL/min/kg.

Consider `C#CCN1CCC(c2nc(Cc3noc(C)n3)no2)CC1`, for which the MDR1-MDCK efflux ratio came out at 0.732; the intrinsic clearance, human liver microsomes was not above 4.74 mL/min/kg; the intrinsic clearance, rat liver microsomes was 12.8 mL/min/kg; the aqueous solubility came out at 49.5 µg/mL (≈ 172 µM).

In the case of `Cc1cnn(Cc2nc(Cn3cccn3)no2)c1`, the MDR1-MDCK efflux ratio was determined as 0.771; the intrinsic clearance, human liver microsomes is not above 4.74 mL/min/kg; the intrinsic clearance, rat liver microsomes was not above 10.7 mL/min/kg; the aqueous solubility is 36 µg/mL (≈ 147 µM).

Take `CN(C)C(=O)OCCN1CCC(c2c[nH]c3ncccc23)CC1`: the MDR1-MDCK efflux ratio was determined as 6.4; the intrinsic clearance, human liver microsomes is 29.6 mL/min/kg; the intrinsic clearance, rat liver microsomes was 101 mL/min/kg; the aqueous solubility was found to be 50 µg/mL (≈ 158 µM).

With `c1ccc(-n2ncc3c(-n4ccnc4)ncnc32)cc1`, the MDR1-MDCK efflux ratio worked out at 0.618; the intrinsic clearance, human liver microsomes turned out to be 16 mL/min/kg; the intrinsic clearance, rat liver microsomes stood at 376 mL/min/kg; the aqueous solubility was found to be 4.97 µg/mL (≈ 18.9 µM).

In the case of `Cc1[nH]nc(CCC(=O)NCCCOC2CCCC2)c1C`, the MDR1-MDCK efflux ratio came out at 14.4; the intrinsic clearance, human liver microsomes turned out to be 33.6 mL/min/kg; the intrinsic clearance, rat liver microsomes came out at 2410 mL/min/kg.

`Cc1ccc(-n2nc(NCc3cnn(C)c3)cc2C)cc1`: the MDR1-MDCK efflux ratio came out at 0.727; the intrinsic clearance, human liver microsomes was not above 4.74 mL/min/kg; the intrinsic clearance, rat liver microsomes came out at 70.4 mL/min/kg.

As for `Nc1ccc(CC(=O)Nc2ccccc2F)cc1`, the MDR1-MDCK efflux ratio was determined as 0.66; the intrinsic clearance, human liver microsomes was not above 4.74 mL/min/kg; the intrinsic clearance, rat liver microsomes was not above 10.7 mL/min/kg; the aqueous solubility was determined as 54 µg/mL (≈ 221 µM).

As to `N#Cc1c(N)nc(-c2ccccc2)nc1C(F)(F)F`, the aqueous solubility came out at 0.19 µg/mL (≈ 0.719 µM).

In the case of `Oc1ccc(-c2noc(C3CC3)n2)cc1`, the MDR1-MDCK efflux ratio worked out at 0.674 and the aqueous solubility came to 49 µg/mL (≈ 242 µM).

Consider `CCc1nc2ccccc2n1CC(=O)Nc1ncc(C)s1`, for which the MDR1-MDCK efflux ratio came out at 29.4; the intrinsic clearance, human liver microsomes amounted to 8.53 mL/min/kg; the intrinsic clearance, rat liver microsomes was determined as 348 mL/min/kg; the aqueous solubility is 49.2 µg/mL (≈ 164 µM).

As for `O=C(NCc1ccc(-n2cncn2)nc1)c1csc2c1CCCC2`, the MDR1-MDCK efflux ratio is 0.992; the intrinsic clearance, human liver microsomes was found to be 22.1 mL/min/kg; the intrinsic clearance, rat liver microsomes was found to be 196 mL/min/kg; the aqueous solubility came out at 5.3 µg/mL (≈ 15.6 µM).

As for `Cc1cccc(N(C)Cc2cnc(N(C)C)nc2)n1`, the MDR1-MDCK efflux ratio came to 0.769; the intrinsic clearance, human liver microsomes was determined as 57.7 mL/min/kg; the intrinsic clearance, rat liver microsomes was 1770 mL/min/kg.

`NC1CCCC(C(=O)N2CCC(c3c[nH]c4ncccc34)CC2)C1` (stereo unspecified): the MDR1-MDCK efflux ratio worked out at 1.5; the fraction unbound, human plasma amounted to 0.566; the intrinsic clearance, human liver microsomes was not above 4.74 mL/min/kg.

On to `Cc1ccc(C(=O)C(=O)Nc2c(C)nn(C)c2C)cc1`, for which the MDR1-MDCK efflux ratio came out at 0.615; the intrinsic clearance, human liver microsomes turned out to be 20 mL/min/kg; the intrinsic clearance, rat liver microsomes came out at 115 mL/min/kg; the aqueous solubility amounted to 32.6 µg/mL (≈ 120 µM).

For the compound `CC(C)c1nsc(N2CCC(Nc3cccnc3)CC2)n1`, the MDR1-MDCK efflux ratio was 0.816; the intrinsic clearance, human liver microsomes amounted to 26.3 mL/min/kg; the intrinsic clearance, rat liver microsomes is 403 mL/min/kg.

Consider `O=C(Nc1nncs1)c1cccnc1`, for which the MDR1-MDCK efflux ratio was 1.04; the intrinsic clearance, human liver microsomes is not above 4.74 mL/min/kg; the intrinsic clearance, rat liver microsomes is not above 10.7 mL/min/kg; the aqueous solubility was found to be 44.3 µg/mL (≈ 215 µM).

As to `Cc1ccsc1-c1nsc(NC(=O)CN(C)C)n1`, the MDR1-MDCK efflux ratio was 0.874; the intrinsic clearance, human liver microsomes is not above 4.74 mL/min/kg; the intrinsic clearance, rat liver microsomes stood at 548 mL/min/kg.

Take `C=CC(=O)N1C[C@H](Nc2ncnc3[nH]ccc23)CC[C@@H]1C`: the MDR1-MDCK efflux ratio was 65.6; the fraction unbound, human plasma was determined as 0.673; the fraction unbound, rat plasma was found to be 0.557; the intrinsic clearance, human liver microsomes is not above 4.74 mL/min/kg. This compound registered an intrinsic clearance, rat liver microsomes of 27.3 mL/min/kg and an aqueous solubility of 53.7 µg/mL (≈ 188 µM).

Turning to `CCC(=O)NCCNC(=O)c1cc(-c2ccccc2)nc2ccccc12`, the MDR1-MDCK efflux ratio is 15.1; the intrinsic clearance, human liver microsomes is 13.3 mL/min/kg; the intrinsic clearance, rat liver microsomes was 80.3 mL/min/kg; the aqueous solubility was 18.7 µg/mL (≈ 53.8 µM).

With `CCOC(C)C(=O)N1CCC(n2c(=O)[nH]c3ccccc32)CC1` (stereo unspecified), the intrinsic clearance, human liver microsomes was not above 4.74 mL/min/kg; the intrinsic clearance, rat liver microsomes amounted to 75.8 mL/min/kg; the aqueous solubility came to 64.7 µg/mL (≈ 204 µM).

For `CCS(=O)(=O)Nc1ccc(Oc2ccc(F)cc2F)c(-c2cn(C)c(=O)c3[nH]ccc23)c1`, the MDR1-MDCK efflux ratio is 51.2; the intrinsic clearance, human liver microsomes was not above 4.74 mL/min/kg; the intrinsic clearance, rat liver microsomes is 14.9 mL/min/kg; the aqueous solubility was found to be 16.9 µg/mL (≈ 36.7 µM).

On to `Cc1nc2n(c1CN1CCN(c3ncccn3)CC1)CCCC2`, for which the MDR1-MDCK efflux ratio came out at 7.45; the intrinsic clearance, human liver microsomes was 29.1 mL/min/kg; the intrinsic clearance, rat liver microsomes is 1180 mL/min/kg.

For `O=C(NC1CCN(c2ccc(OC(F)(F)F)cc2)CC1)N1CCC1`, the MDR1-MDCK efflux ratio is 0.716; the intrinsic clearance, human liver microsomes was not above 4.74 mL/min/kg; the intrinsic clearance, rat liver microsomes worked out at 26.4 mL/min/kg; the aqueous solubility amounted to 57 µg/mL (≈ 166 µM).

For the compound `CC1(c2nnc(-c3ccc4c(c3)OCCO4)o2)CCOCC1`, the MDR1-MDCK efflux ratio was found to be 0.742; the intrinsic clearance, human liver microsomes is 13.3 mL/min/kg; the intrinsic clearance, rat liver microsomes came out at 247 mL/min/kg; the aqueous solubility worked out at 40.8 µg/mL (≈ 135 µM).

`O=C(Nc1ccc(F)cc1F)N1CCn2c1nc1ccccc12`: the MDR1-MDCK efflux ratio is 0.468; the intrinsic clearance, human liver microsomes came out at 78.5 mL/min/kg; the intrinsic clearance, rat liver microsomes is 90.1 mL/min/kg; the aqueous solubility worked out at 6.1 µg/mL (≈ 19.4 µM).

`CC(C)CCn1ccc(NC2CCN(C(C)C)CC2)n1`: the MDR1-MDCK efflux ratio came out at 3.58; the intrinsic clearance, human liver microsomes is not above 4.74 mL/min/kg; the intrinsic clearance, rat liver microsomes was 152 mL/min/kg.

For the compound `O=C(NCCc1csc(N2CCCC2)n1)N1CCSCC1`, the MDR1-MDCK efflux ratio was determined as 4.26; the intrinsic clearance, human liver microsomes stood at 61.9 mL/min/kg; the intrinsic clearance, rat liver microsomes worked out at 882 mL/min/kg; the aqueous solubility is 52.6 µg/mL (≈ 161 µM).

On to `CC(=O)Nc1ccccc1OCCOc1ccc(Cl)cc1`, for which the MDR1-MDCK efflux ratio stood at 0.373; the intrinsic clearance, human liver microsomes was determined as 95.8 mL/min/kg; the intrinsic clearance, rat liver microsomes was determined as 665 mL/min/kg.

Consider `Cc1ncsc1CCN1C(=O)NC2(CCCC2)C1=O`, for which the intrinsic clearance, human liver microsomes was not above 4.74 mL/min/kg and the intrinsic clearance, rat liver microsomes was 172 mL/min/kg.

In the case of `Cc1cc(C)n(-c2ccc(CNC(=O)C3CCC3)cn2)n1`, the MDR1-MDCK efflux ratio was determined as 1.08; the intrinsic clearance, human liver microsomes came to 9.73 mL/min/kg; the intrinsic clearance, rat liver microsomes is 571 mL/min/kg; the aqueous solubility came out at 39.7 µg/mL (≈ 140 µM).

As to `c1cc2cc[nH]c2c(CC2CN(C3CCCC3)C2)n1`, the MDR1-MDCK efflux ratio worked out at 3.21; the intrinsic clearance, human liver microsomes is not above 4.74 mL/min/kg; the intrinsic clearance, rat liver microsomes stood at 80.5 mL/min/kg; the aqueous solubility stood at 18.6 µg/mL (≈ 72.7 µM).

In turn, `CN(C)CCn1ccc2cc(NC(=O)c3ccc(=O)[nH]n3)ccc21` registered an aqueous solubility of 53.5 µg/mL (≈ 164 µM).

`Cc1nc(C(=O)NC2CC2)ccc1C#N` yielded an aqueous solubility of 36.2 µg/mL (≈ 180 µM).

As for `c1cc2c(N3CCNCC3)nc(-c3ccnc(NC4CCCCC4)c3)cc2cn1`, the MDR1-MDCK efflux ratio was found to be 26.5; the intrinsic clearance, human liver microsomes was 68.7 mL/min/kg; the intrinsic clearance, rat liver microsomes was found to be 260 mL/min/kg; the aqueous solubility is 39.9 µg/mL (≈ 103 µM).
